ChEMBL document CHEMBL5465560, “Selectivity Literature for EUbOPEN Chemogenomic Library” (2024)
Blank lines part the entries; values can stand above or below the compound they belong to.

What was measured:
[1] = target: Vascular endothelial growth factor receptor 2 (Homo sapiens, UniProt P35968); assay: Selectivity interaction (Kinase panel (literature)) EUB0001199aCl KDR; settings: at 1 µM
[2] = target: Ribosomal protein S6 kinase alpha-4 (Homo sapiens) (UniProt O75676); assay: Selectivity interaction (KinomeScan (DiscoverX)) EUB0000655a RPS6KA4; settings: at 10 µM
Chain of Ribosomal protein S6 kinase alpha-4 (Homo sapiens) (O75676 whole entry, looked up): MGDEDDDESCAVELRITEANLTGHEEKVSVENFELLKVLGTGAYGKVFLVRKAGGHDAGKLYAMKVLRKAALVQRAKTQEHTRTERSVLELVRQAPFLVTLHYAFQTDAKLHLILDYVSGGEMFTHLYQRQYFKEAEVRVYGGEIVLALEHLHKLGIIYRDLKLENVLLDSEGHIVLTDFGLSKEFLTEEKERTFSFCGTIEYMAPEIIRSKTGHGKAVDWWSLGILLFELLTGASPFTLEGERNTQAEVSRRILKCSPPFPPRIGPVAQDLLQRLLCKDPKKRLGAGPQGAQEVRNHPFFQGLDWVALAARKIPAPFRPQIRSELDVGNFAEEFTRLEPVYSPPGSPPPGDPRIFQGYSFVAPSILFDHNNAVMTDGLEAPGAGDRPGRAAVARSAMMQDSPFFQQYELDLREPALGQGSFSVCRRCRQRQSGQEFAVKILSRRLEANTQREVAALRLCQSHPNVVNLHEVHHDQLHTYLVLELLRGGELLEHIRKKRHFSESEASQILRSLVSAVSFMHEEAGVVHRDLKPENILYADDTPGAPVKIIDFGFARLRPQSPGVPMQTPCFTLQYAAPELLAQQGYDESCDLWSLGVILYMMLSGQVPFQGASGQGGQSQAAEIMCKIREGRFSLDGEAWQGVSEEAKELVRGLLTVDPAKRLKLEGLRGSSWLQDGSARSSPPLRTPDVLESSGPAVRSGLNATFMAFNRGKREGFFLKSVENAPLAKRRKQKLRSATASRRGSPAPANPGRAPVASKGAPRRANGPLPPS

[3] = target: T1, Dual specificity mitogen-activated protein kinase kinase 3 (Homo sapiens) (UniProt P46734); assay: Selectivity interaction (KinomeScan (DiscoverX)) EUB0001079a MAP2K3; settings: at 1 µM
T1 sequence (whole entry): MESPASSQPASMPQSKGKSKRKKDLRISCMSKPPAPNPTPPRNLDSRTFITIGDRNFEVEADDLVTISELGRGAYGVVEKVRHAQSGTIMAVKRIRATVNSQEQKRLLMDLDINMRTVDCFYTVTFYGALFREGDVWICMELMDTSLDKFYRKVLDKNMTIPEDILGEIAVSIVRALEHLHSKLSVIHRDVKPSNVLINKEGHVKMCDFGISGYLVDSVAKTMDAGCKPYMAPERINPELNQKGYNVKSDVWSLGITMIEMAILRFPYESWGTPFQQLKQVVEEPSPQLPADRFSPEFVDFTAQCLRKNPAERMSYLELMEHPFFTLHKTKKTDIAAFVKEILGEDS

[4] = target: Calcium/calmodulin-dependent protein kinase type II subunit gamma (Homo sapiens) (UniProt Q13555); assay: Selectivity interaction (KinomeScan (DiscoverX)) EUB0000607a CAMK2G; settings: at 10 µM
Chain of Calcium/calmodulin-dependent protein kinase type II subunit gamma (Homo sapiens) (Q13555 whole entry): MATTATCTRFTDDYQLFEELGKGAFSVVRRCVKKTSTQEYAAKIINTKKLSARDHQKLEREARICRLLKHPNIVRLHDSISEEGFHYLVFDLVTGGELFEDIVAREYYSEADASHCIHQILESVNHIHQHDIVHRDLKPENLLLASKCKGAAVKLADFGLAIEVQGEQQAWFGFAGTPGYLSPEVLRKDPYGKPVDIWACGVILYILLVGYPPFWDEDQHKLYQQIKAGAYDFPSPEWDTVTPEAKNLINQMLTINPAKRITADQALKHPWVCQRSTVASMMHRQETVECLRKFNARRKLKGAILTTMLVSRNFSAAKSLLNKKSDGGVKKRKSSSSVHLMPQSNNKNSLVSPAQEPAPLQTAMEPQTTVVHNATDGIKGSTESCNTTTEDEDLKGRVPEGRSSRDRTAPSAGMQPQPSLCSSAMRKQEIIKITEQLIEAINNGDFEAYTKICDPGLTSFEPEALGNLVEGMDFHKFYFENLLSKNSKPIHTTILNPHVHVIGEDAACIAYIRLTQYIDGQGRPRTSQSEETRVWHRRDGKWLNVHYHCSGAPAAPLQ

[5] = target: T2, Serine/threonine-protein kinase greatwall (Homo sapiens) (UniProt Q96GX5); assay: Selectivity interaction (ActivX KiNativ screen (kinase selectivity in THP-1 cell lysates)) EUB0000639a MASTL; format: subcellular; settings: lysate, at 0.04 µM
T2 sequence (whole entry): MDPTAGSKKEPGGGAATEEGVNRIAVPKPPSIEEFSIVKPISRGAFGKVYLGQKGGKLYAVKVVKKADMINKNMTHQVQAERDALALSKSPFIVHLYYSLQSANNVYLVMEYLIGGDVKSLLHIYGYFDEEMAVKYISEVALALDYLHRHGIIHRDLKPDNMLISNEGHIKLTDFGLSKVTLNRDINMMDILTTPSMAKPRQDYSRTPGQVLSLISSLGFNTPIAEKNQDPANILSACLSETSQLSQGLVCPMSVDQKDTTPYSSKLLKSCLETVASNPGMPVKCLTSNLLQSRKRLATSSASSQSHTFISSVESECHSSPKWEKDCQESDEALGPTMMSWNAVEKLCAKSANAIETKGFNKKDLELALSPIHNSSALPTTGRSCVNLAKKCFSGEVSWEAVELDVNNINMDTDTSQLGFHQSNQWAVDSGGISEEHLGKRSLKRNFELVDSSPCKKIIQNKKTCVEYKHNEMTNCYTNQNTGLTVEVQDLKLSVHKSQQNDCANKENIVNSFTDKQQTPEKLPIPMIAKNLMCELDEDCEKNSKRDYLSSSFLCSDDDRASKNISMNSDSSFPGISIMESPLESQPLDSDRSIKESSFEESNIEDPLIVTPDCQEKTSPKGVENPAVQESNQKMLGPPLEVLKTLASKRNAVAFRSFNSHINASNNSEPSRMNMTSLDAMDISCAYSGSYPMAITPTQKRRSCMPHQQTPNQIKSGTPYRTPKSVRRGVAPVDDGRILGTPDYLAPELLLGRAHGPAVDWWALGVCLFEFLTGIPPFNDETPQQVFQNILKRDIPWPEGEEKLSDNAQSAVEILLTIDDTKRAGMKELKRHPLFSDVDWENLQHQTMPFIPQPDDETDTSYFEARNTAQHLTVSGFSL

[6] = target: Tyrosine-protein kinase SYK (Homo sapiens, UniProt P43405)
[7] = target: T3, Serine/threonine-protein kinase RIO3 (Homo sapiens) (UniProt O14730); assay: Selectivity interaction (KinomeScan (DiscoverX)) EUB0000229b RIOK3; settings: at 10 µM
T3 sequence (whole entry): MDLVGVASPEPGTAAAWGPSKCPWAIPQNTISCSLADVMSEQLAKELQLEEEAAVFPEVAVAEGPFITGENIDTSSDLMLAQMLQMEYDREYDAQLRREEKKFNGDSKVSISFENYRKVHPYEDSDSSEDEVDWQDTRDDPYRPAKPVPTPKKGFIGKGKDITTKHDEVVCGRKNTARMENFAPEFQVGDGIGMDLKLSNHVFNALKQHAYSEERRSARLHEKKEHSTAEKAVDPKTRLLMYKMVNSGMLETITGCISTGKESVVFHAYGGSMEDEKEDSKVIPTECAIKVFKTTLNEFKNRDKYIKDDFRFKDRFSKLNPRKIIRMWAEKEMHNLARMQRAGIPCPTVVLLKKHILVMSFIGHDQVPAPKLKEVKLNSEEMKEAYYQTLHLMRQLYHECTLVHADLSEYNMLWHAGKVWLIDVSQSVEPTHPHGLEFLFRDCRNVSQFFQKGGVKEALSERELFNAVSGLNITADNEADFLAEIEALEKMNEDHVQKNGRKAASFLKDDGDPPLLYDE

[8] = target: Casein kinase I isoform gamma-1 (Homo sapiens) (UniProt Q9HCP0); assay: Selectivity interaction (KinomeScan (DiscoverX)) EUB0001049a CSNK1G1; settings: at 1 µM
Chain of Casein kinase I isoform gamma-1 (Homo sapiens) (Q9HCP0 whole entry, looked up, canonical isoform): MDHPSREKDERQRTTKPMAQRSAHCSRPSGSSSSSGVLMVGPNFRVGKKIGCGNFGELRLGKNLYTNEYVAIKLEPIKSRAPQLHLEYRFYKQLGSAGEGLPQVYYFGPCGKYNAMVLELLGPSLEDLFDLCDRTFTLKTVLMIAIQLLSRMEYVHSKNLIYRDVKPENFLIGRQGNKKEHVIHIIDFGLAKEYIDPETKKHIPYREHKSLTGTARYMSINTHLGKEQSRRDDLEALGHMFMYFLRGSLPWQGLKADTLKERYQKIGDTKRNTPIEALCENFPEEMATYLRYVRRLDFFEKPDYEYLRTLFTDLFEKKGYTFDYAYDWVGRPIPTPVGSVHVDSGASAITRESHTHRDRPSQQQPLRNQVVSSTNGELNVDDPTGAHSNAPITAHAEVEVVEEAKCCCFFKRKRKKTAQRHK

[9] = target: T4, Serine/threonine-protein kinase tousled-like 1 (Homo sapiens) (UniProt Q9UKI8); assay: Selectivity interaction (LanthaScreen Eu Kinase Binding Assay) EUB0001632a TLK1; settings: at 10 µM
T4 sequence (whole entry): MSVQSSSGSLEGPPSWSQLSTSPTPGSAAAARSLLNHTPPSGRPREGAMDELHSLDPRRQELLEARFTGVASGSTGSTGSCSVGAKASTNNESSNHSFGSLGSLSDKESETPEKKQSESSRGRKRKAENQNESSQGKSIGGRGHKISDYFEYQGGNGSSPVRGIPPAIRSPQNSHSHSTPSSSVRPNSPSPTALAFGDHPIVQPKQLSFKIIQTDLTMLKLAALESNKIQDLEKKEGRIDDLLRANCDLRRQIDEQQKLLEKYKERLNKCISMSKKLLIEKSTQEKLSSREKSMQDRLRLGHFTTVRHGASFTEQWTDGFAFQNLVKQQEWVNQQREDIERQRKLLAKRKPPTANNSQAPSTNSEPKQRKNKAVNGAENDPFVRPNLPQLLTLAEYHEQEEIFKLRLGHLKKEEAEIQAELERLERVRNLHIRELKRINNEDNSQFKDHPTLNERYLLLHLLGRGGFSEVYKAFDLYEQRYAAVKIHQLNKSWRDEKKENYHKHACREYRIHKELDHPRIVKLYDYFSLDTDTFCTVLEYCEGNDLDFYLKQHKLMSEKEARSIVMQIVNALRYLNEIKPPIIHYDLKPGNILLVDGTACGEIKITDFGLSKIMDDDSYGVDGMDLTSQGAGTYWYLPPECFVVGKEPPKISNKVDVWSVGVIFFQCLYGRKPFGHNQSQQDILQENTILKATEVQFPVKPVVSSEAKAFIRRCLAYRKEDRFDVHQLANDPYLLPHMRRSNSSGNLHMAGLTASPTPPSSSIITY

Chain of Vascular endothelial growth factor receptor 2 (P35968 whole entry): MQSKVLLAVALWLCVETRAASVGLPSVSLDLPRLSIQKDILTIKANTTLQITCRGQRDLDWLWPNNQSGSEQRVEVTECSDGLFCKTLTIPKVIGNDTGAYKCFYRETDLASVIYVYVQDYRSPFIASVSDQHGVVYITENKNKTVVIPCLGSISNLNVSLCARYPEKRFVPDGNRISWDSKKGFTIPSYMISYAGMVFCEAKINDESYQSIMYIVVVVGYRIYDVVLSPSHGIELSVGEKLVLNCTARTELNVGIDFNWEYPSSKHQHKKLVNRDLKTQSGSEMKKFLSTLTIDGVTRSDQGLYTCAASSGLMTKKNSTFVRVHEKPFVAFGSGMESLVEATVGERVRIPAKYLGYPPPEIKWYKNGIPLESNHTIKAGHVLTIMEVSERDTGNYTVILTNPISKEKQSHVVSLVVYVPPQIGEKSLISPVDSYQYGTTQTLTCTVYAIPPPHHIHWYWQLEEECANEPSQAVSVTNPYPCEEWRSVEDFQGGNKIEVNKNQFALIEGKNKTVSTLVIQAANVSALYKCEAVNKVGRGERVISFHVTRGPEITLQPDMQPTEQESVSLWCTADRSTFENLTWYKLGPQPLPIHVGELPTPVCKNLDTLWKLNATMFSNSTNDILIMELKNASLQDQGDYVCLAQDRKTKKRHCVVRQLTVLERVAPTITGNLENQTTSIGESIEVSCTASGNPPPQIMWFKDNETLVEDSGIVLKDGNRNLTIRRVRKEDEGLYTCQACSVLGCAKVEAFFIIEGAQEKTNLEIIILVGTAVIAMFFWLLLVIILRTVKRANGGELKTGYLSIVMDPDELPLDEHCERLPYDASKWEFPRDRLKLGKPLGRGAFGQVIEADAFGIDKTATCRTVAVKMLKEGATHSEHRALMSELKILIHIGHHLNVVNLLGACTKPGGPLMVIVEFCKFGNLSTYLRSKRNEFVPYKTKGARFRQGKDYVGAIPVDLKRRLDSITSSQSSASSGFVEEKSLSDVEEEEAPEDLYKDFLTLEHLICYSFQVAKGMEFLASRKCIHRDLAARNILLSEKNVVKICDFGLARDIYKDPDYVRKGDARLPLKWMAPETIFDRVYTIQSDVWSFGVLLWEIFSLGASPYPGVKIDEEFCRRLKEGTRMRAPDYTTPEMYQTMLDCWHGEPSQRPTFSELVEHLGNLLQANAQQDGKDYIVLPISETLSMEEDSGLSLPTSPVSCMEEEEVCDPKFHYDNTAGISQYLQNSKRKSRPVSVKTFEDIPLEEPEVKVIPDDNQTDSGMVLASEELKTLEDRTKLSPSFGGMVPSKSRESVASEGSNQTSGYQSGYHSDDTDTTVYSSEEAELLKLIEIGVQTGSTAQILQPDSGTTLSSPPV

% of inhibition [1]: 8%
Compound: CN1Cc2nccc(-c3cn(C)nc3-c3ccc(F)cc3)c2C1=O

Compound: CN(C)CCOc1ccc(-c2nc(-c3ccncc3)c(-c3ccc4c(c3)CC/C4=N\O)[nH]2)cc1
% of control [2]: 100%

Compound: Nc1cnc(N2CCc3cc(S(=O)(=O)Nc4c(F)cc(Cl)cc4F)cc(N4CCCC4=O)c32)nc1 [TP-020n]
% of control [3]: 100%

Compound: CNC(=O)Nc1ccc(-c2nc(N3CC4CCC(C3)O4)c3cnn(C4CCC5(CC4)OCCO5)c3n2)cc1
% of control [4]: 100%

% of inhibition [5]: 3.9%
Compound: CC[C@@H]1[C@H](F)C(=O)N[C@@H]1COc1nccc2cc(C(N)=O)c(OC)cc12 [ZIMLOVISERTIB]

IC50 [6]: > 10 µM
Compound: CCc1cccc(CC)c1NC(=O)c1nn(C)c2c1CCc1cnc(Nc3ccc(C(=O)NC4CCN(C)CC4)cc3OC(F)(F)F)nc1-2

Compound: COc1cc(N(C)c2ccnc3ccc(C(F)(F)F)cc23)cc(OC)c1OC
% binding [7]: 90%

Compound: COc1cc(Nc2nc(C)cc(-c3cnn4nc(OC)ccc34)n2)cc(C(F)(F)F)c1
% of control [8]: 100%

% of inhibition [9]: 5.47%
Compound: Cn1cc(-n2cnc3c(NCc4nc5cc(Cl)c(Cl)cc5[nH]4)nc(N4CCOCC4)nc32)cn1
